From patent US11613527B2, “Enzyme inhibitors” (KalVista Pharmaceuticals Limited, priority 2019, dated 2023)
Converted amounts (≈) assume the structure as drawn.

Experiments:
[1] = Solubility after 24 hrs in Fasted State Simulated Intestinal Fluid (FaSSIF); format: physicochemical; conditions: Fasted State Simulated Intestinal Fluid (FaSSIF), thermodynamic from solid, 24 hrs at 37° C., nominal concentration 1 mg/mL (as free base)
Experimental: Selected compounds were further screened for solubility in Fasted State Simulated Intestinal Fluid (FaSSIF).
Approximately 1 mg of test compound is accurately weighed into a 2 mL vial. Volumes of the FaSSIF solution (pre-heated to 37° C.) were added to a vial to give a nominal concentration of 1 mg/mL (as free base). The FaSSIF solution was prepared on the day of use. The samples were vortexed before being placed in a Titramax 1000 shaker for 24 hrs at 37° C. and approximately 500 rpm. The samples were transferred to eppendorf tubes and centrifuged at 15,000 g (r.c.f.) for 10 min at 37° C. and analysed for concentration of test compound by LCMS.

[2] = Pharmacokinetics following a single oral dose in male Sprague-Dawley rats; format: in vivo; conditions: rat, nominal 5 mg/kg in 10% DMSO/10% cremophor/80% SWFI, plasma
Experimental: Pharmacokinetic studies of the compounds in Table 14 were performed to assess the pharmacokinetics following a single oral dose in male Sprague-Dawley rats. Two rats were given a single po dose of 5 mL/kg of a nominal 1 mg/mL (5 mg/kg) composition of test compound in 10% DMSO/10% cremophor/80% SWFI vehicle. Following dosing, blood samples were collected over a period of […]. Sample times were 5, 15 and 30 minutes then 1, 2, 4, 6, 8 and 12 hours. Following collection, blood samples were centrifuged and the plasma fraction analysed for concentration of test compound by LCMS.

Human plasma kallikrein = Human plasma kallikrein (Homo sapiens (Human), UniProt P03952); test: Determination of the IC50 for plasma kallikrein (fluorogenic substrate H-DPro-Phe-Arg-AFC); format: biochemical; conditions: class symbols A-D, read-out: IC50 (human PKal)
Human plasma kallikrein, sequence (P03952 391-638): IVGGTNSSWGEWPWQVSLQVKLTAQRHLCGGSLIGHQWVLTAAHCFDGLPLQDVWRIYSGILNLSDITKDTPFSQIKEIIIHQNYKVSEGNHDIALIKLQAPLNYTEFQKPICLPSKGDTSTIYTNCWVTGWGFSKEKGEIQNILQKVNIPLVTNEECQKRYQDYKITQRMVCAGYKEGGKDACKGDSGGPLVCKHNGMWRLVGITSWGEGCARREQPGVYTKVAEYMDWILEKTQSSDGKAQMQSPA
Human plasma kallikrein, sequence (P03952 20-390 partner): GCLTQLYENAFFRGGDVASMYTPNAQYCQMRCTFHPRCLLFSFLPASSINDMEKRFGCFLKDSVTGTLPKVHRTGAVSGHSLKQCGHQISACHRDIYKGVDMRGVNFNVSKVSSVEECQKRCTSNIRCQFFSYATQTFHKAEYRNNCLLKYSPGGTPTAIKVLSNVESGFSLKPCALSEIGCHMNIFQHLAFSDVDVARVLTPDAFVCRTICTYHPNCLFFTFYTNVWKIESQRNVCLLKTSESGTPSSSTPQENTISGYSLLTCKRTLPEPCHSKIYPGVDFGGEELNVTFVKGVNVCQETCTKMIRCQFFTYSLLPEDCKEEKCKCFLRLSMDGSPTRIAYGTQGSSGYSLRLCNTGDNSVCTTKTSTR
Procedure, shortened: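 IC50 values come from initial rates, monitored as the change in absorbance at 410 nm, of residual enzyme activity. Test compound was present at various concentrations with the fluorogenic substrate H-DPro-Phe-Arg-AFC, and the reaction was run at 25° C.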

Human KLK1 = Human KLK1 (Homo sapiens (Human), UniProt P06870); test: Determination of the IC50 for KLK1 (fluorogenic substrate H-DVal-Leu-Arg-AFC); format: biochemical
Human KLK1, sequence (P06870 25-262): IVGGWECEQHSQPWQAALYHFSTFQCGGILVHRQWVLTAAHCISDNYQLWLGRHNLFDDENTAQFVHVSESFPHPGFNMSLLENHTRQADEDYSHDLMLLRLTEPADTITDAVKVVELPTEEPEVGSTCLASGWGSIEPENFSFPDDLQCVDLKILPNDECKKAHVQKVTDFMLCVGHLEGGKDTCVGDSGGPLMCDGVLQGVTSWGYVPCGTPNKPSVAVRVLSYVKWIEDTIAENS
Procedure, shortened: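 Inhibition read as initial rate via optical absorbance change at 410 nm, giving IC50. Reactions combined human KLK1, the substrate H-DVal-Leu-Arg-AFC and varied compound concentrations at 25° C.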

Human FXIa = Human FXIa (Homo sapiens (Human), UniProt P03951); test: Determination of the % inhibition for FXIa (fluorogenic substrate Z-Gly-Pro-Arg-AFC; 40 μM or IC50); format: biochemical
Human FXIa, sequence (P03951 388-625): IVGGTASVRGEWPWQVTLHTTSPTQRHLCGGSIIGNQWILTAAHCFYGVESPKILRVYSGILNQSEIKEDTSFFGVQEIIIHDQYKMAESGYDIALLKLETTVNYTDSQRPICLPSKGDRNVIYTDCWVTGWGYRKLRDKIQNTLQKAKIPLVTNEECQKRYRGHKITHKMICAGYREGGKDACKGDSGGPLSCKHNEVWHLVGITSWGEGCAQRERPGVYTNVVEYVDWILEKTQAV
Human FXIa, sequence (P03951 19-387 partner): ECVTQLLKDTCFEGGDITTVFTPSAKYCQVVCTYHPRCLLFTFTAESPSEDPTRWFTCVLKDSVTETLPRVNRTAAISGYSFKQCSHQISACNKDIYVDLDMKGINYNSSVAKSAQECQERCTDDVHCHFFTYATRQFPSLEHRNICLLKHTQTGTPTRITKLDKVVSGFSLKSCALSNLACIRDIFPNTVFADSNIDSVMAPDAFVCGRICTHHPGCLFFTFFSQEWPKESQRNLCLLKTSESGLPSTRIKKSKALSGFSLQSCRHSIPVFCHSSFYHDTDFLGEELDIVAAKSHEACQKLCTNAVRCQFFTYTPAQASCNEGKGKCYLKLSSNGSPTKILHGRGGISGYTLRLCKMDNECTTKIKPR
Procedure, shortened: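 Inhibition measured from initial reaction rate, followed as absorbance change at 410 nm, with substrate Z-Gly-Pro-Arg-AFC at 25 °C. Compound tested at a single 40 μM dose for percent inhibition, or across several concentrations to derive IC50 against human FXIa.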

SMILES | solubility at 24 h [1] [µg/mL] | Cmax [2] [ng/mL] | IC50 (Human plasma kallikrein) [µM] | IC50 (Human KLK1) [µM] | IC50 (Human FXIa) [µM]
CCN1CCc2cc(Cn3cc(C(=O)NCc4c(-n5cnc(C(F)(F)F)n5)ccc(OC)c4F)c(COC)n3)ccc2C1 [Example 51, 1-[(2-ethyl-3,4-dihydro-1H-isoquinolin-6-yl)methyl]-N-({2-fluoro-3-methoxy-6-[3-(trifluoromethyl)-1,2,4-triazol-1-yl]phenyl}methyl)-3-(methoxymethyl)pyrazole-4-carboxamide] | 770 (≈ 1280 µM) |  | < 0.01 | > 40 | > 40
COc1ccc(-n2cc(C)nn2)c(CNC(=O)c2cn(Cc3cc4n(n3)CCN(C)C4)nc2C(F)F)c1F [Example 136, 3-(difluoromethyl)-N-{[2-fluoro-3-methoxy-6-(4-methyl-1,2,3-triazol-1-yl)phenyl]methyl}-1-({5-methyl-4H,6H,7H-pyrazolo[1,5-a]pyrazin-2-yl}methyl)pyrazole-4-carboxamide] | 730 (≈ 1380 µM) |  | < 0.01 | > 40 | > 40
COCc1nn(Cc2ccc3c(c2)CCN(C)C3)cc1C(=O)NCc1c(-n2cnc(C(F)F)n2)ccc(OC)c1F [Example 41, N-({6-[3-(difluoromethyl)-1,2,4-triazol-1-yl]-2-fluoro-3-methoxyphenyl}methyl)-3-(methoxymethyl)-1-[(2-methyl-3,4-dihydro-1H-isoquinolin-6-yl)methyl]pyrazole-4-carboxamide] | > 1000 |  | < 0.01 | > 40 | > 40
COCc1nc(C(=O)NCc2c(-n3cc(C)nn3)ccc(OC)c2F)cn1Cc1ccc2c(c1)CN(C(C)C)C2 [Example 147, N-{[2-fluoro-3-methoxy-6-(4-methyl-1,2,3-triazol-1-yl)phenyl]methyl}-1-[(2-isopropyl-1,3-dihydroisoindol-5-yl)methyl]-2-(methoxymethyl)imidazole-4-carboxamide] | > 1000 |  | 0.01 to 0.03 | > 40 | > 40
COCc1nn(Cc2cc3c(cc2F)CCN(C)C3)cc1C(=O)NCc1c(-n2cc(C)nn2)ccc(OC)c1F [Example 118, 1-[(6-fluoro-2-methyl-3,4-dihydro-1H-isoquinolin-7-yl)methyl]-N-{[2-fluoro-3-methoxy-6-(4-methyl-1,2,3-triazol-1-yl)phenyl]methyl}-3-(methoxymethyl)pyrazole-4-carboxamide] | 930 (≈ 1690 µM) |  | < 0.01 | > 40 | 9.9
COCc1nn(Cc2cnc(N3CCCC3)nc2)cc1C(=O)NCc1c(-n2cc(C(F)F)nn2)ccc(OC)c1F [RC7, N-({6-[4-(difluoromethyl)-1,2,3-triazol-1-yl]-2-fluoro-3-methoxyphenyl}methyl)-3-(methoxymethyl)-1-{[2-(pyrrolidin-1-yl)pyrimidin-5-yl]methyl}pyrazole-4-carboxamide, reference compound] | 10 (≈ 17.5 µM) |  | < 0.01 | > 40 | 0.559
COCc1nn(Cc2cnc3c(c2)CCN(C(C)C)C3)cc1C(=O)NCc1c(-n2cc(C)nn2)ccc(OC)c1F [Example 117, N-{[2-fluoro-3-methoxy-6-(4-methyl-1,2,3-triazol-1-yl)phenyl]methyl}-1-[(7-isopropyl-6,8-dihydro-5H-1,7-naphthyridin-3-yl)methyl]-3-(methoxymethyl)pyrazole-4-carboxamide] | 900 (≈ 1600 µM) |  | 0.01 to 0.03 | > 40 | > 40
COCc1nn(Cc2ccc3c(c2)CCN(C(C)C)C3)cc1C(=O)NCc1c(-n2cnc(C(F)(F)F)n2)ccc(OC)c1F [Example 45, N-({2-fluoro-3-methoxy-6-[3-(trifluoromethyl)-1,2,4-triazol-1-yl]phenyl}methyl)-1-[(2-isopropyl-3,4-dihydro-1H-isoquinolin-6-yl)methyl]-3-(methoxymethyl)pyrazole-4-carboxamide] | 840 (≈ 1360 µM) |  | < 0.01 | > 40 | > 40
COCc1nn(Cc2ccc3c(c2)CN(C)CC3)cc1C(=O)NCc1c(-n2cnc(C(F)F)n2)ccc(OC)c1Cl [Example 156, N-({2-chloro-6-[3-(difluoromethyl)-1,2,4-triazol-1-yl]-3-methoxyphenyl}methyl)-3-(methoxymethyl)-1-[(2-methyl-3,4-dihydro-1H-isoquinolin-7-yl)methyl]pyrazole-4-carboxamide] | > 1000 |  | < 0.01 | > 40 | > 40
COc1ccc(-n2cc(C)nn2)c(CNC(=O)c2cncc(Cc3ccc4c(c3)CN(C)CC4)c2)c1F [Example 161, N-{[2-fluoro-3-methoxy-6-(4-methyl-1,2,3-triazol-1-yl)phenyl]methyl}-5-[(2-methyl-3,4-dihydro-1H-isoquinolin-7-yl)methyl]pyridine-3-carboxamide] | > 1000 |  | < 0.01 | > 40 | > 40
COc1ccc(-n2cc(C)nn2)c(CNC(=O)c2cn(Cc3cnc4c(c3)CCN(C)C4)nc2C(F)F)c1F [Example 137, 3-(difluoromethyl)-N-{[2-fluoro-3-methoxy-6-(4-methyl-1,2,3-triazol-1-yl)phenyl]methyl}-1-[(7-methyl-6,8-dihydro-5H-1,7-naphthyridin-3-yl)methyl]pyrazole-4-carboxamide] | 810 (≈ 1500 µM) |  | < 0.01 | > 40 | 21.9
COc1ccc(-n2cc(C)nn2)c(CNC(=O)c2cn(Cc3ccc4c(n3)CCN(C)C4)nc2C(F)(F)F)c1F [Example 138, N-{[2-fluoro-3-methoxy-6-(4-methyl-1,2,3-triazol-1-yl)phenyl]methyl}-1-[(6-methyl-7,8-dihydro-5H-1,6-naphthyridin-2-yl)methyl]-3-(trifluoromethyl)pyrazole-4-carboxamide] | > 1000 |  | 0.01 to 0.03 | > 40 | > 40

Other lines, results leading:

solubility at 24 h [1] [µg/mL] | Cmax [2] [ng/mL] | IC50 (Human plasma kallikrein) [µM] | IC50 (Human KLK1) [µM] | IC50 (Human FXIa) [µM] | SMILES
> 1000 | 136 |  |  |  | COCc1nn(Cc2ccc3c(c2)CN(C(C)C)C3)cc1C(=O)NCc1c(-n2cc(C)nn2)ccc(OC)c1F [Example 55, N-{[2-Fluoro-3-methoxy-6-(4-methyl-1,2,3-triazol-1-yl)phenyl]methyl}-1-[(2-isopropyl-1,3-dihydroisoindol-5-yl)methyl]-3-(methoxymethyl)pyrazole-4-carboxamide]
50 (≈ 96 µM) |  | 0.1 to 1 | > 40 | > 40 | COCc1nn(Cc2ccc3c(c2)COCC3)cc1C(=O)NCc1c(-n2cc(C)nn2)ccc(OC)c1F [Example 133, 1-(3,4-dihydro-1H-2-benzopyran-7-ylmethyl)-N-{[2-fluoro-3-methoxy-6-(4-methyl-1,2,3-triazol-1-yl)phenyl]methyl}-3-(methoxymethyl)pyrazole-4-carboxamide]
> 1000 |  | < 0.01 | > 40 | 1.03 | COCc1nn(Cc2ccc3c(c2)CN(C)CC3)cc1C(=O)NCc1c(-n2cnc(C)n2)ccc(OC)c1F [Example 4, N-{[2-fluoro-3-methoxy-6-(3-methyl-1,2,4-triazol-1-yl)phenyl]methyl}-3-(methoxymethyl)-1-[(2-methyl-3,4-dihydro-1H-isoquinolin-7-yl)methyl]pyrazole-4-carboxamide]
880 (≈ 1650 µM) |  | < 0.01 | > 4 | > 4 | COCc1nn(Cc2ccc3c(c2)CCN(C)C3)cc1C(=O)NCc1c(-n2cc(C)nn2)ccc(OC)c1F [Example 36, N-{[2-fluoro-3-methoxy-6-(4-methyl-1,2,3-triazol-1-yl)phenyl]methyl}-3-(methoxymethyl)-1-[(2-methyl-3,4-dihydro-1H-isoquinolin-6-yl)methyl]pyrazole-4-carboxamide]
20 (≈ 39.8 µM) |  | < 0.01 | > 40 | 1.92 | COCc1nn(Cc2ccc3ncccc3c2)cc1C(=O)NCc1c(-n2cnnn2)ccc(OC)c1F [RC3, N-{[2-fluoro-3-methoxy-6-(1,2,3,4-tetrazol-1-yl)phenyl]methyl}-3-(methoxymethyl)-1-(quinolin-6-ylmethyl)pyrazole-4-carboxamide, reference compound]
